Reference: patent US20140374103A1, “TREATING AND RECYLCING OILFIELD WASTE WATER” (BAKER HUGHES INCORPORATED, priority 2013, published 2014)

Tested on: bacteria in oilfield waste water
Settings: 10 mL of 30 vol % hydrogen peroxide to 250 mL raw oilfield waste water (Sample A and Sample B), room temperature, stirred; before vs after treatment; FIGS. 4 and 5
Description: The number density of the bacteria present in the oilfield waste water is determined before or after introduction of the biocide, the oxidizer, or a combination thereof. Determining the number density of the bacteria is accomplished in various manners. In an embodiment, the number density of the bacteria is determined by particle sizing such as by light scattering. In another embodiment, a small volume of oilfield water is disposed on an agar plate or slant tube and subjected to microbiological counting methods. Alternatively, the number density of the bacteria is determined by quantifying an amount of bacterial adenosine triphosphate (ATP) in a sample of the oilfield waste water, wherein the ATP is retrieved from living bacterial cells. The sample size is a portion or all of the oilfield waste water. […] The ATP quantification is accomplished by lysing the bacterial cells using an enzyme to release ATP into the sample of the oilfield waste water. An assay for the amount of ATP includes introducing a luminescent enzyme such as firefly luciferase to the sample and thereafter collecting luminescence from the luminescent enzyme. […] Thereafter, the number density of bacteria in the oilfield waste water is calculated from the amount of bacterial ATP. […] An aliquot of Sample A and Sample B was collected and subjected to ATP quantification before and after treatment with the hydrogen peroxide.

## OO [hydrogen peroxide]
  number density of bacteria in the treated water: drastically decreases the number density of bacteria
